We go through 15 molecules from ChEMBL document CHEMBL1154938 (Bioorg Med Chem Lett, 2010).

In assay [1] the test system is Human immunodeficiency virus 1. The experiment in a line: Antiviral activity against CCR5-tropic recombinant HIV1 NLBal virus infected in JC53-BL cells assessed as inhibition of viral replication after 3 days by luciferase reporter gene assay. The format is functional, organism-based. Conditions: Human immunodeficiency virus 1, NLBal, JC53BL, 72 h.
In assay [2] the target is C-C chemokine receptor type 5 (Homo sapiens, UniProt P51681). The experiment in a line: Displacement of […] from human CCR5 receptor coexpressed with Galphai6 in CHO cells after 2 hrs by scintillation counting. It counts as cell-based.
Chain of C-C chemokine receptor type 5 (P51681 whole entry): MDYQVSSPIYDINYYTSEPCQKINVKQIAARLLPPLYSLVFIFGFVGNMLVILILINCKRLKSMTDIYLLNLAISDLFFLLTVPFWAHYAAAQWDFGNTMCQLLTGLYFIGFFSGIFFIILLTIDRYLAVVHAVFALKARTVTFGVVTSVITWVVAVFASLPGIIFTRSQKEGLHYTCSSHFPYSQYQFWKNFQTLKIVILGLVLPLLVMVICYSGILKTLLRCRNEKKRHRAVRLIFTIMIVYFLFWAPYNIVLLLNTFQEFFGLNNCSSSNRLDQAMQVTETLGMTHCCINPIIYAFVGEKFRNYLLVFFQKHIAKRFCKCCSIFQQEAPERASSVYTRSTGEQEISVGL

Where only a bound is given, the exact number is not on record here.

As for `Cc1nnc(C)n1C1CCN(CC[C@H](NC(=O)C2CCOC2)c2cccc(F)c2)CC1` (some centres not stated), the IC50 in assay [1] was at least 625 nM.

As to `Cc1nnc(C)n1[C@H]1C[C@@H]2CN(CC[C@H](NC(=O)C3CC(F)(F)C3)c3cccc(F)c3)C[C@@H]2C1`, the IC50 was found to be 200 nM in assay [1] and 6 nM in assay [2]. In the case of `Cc1nnc(C)n1[C@H]1C[C@@H]2CN(CC[C@H](NC(=O)C3CCOCC3)c3cccc(F)c3)C[C@@H]2C1`, the results for the IC50 in assay [1] and in assay [2] were at least 625 nM and 43 nM, respectively.

Consider `Cc1nnc(C)n1[C@H]1C[C@@H]2CN(CC[C@H](NC(=O)C3CCC(F)(F)CC3)c3cccc(F)c3)C[C@@H]2C1`, for which, in assay [1], the IC50 came out at 81 nM. On to `Cc1nnc(C)n1[C@@H]1C[C@@H]2CN(CC[C@H](NC(=O)C3CCOC3)c3cccc(F)c3)C[C@@H]2C1` (some centres not stated), for which the IC50 in assay [1] worked out at 210 nM; in assay [2], 18 nM. Consider `Cc1nnc(C)n1[C@H]1C[C@@H]2CN(CC[C@H](NC(=O)C3CCOC3)c3cccc(F)c3)C[C@@H]2C1` (some centres not stated), for which the IC50 in assay [1] came out at 40 nM; in assay [2], 35 nM. Turning to `Cc1nnc(C)n1[C@@H]1C[C@@H]2CN(CC[C@H](NC(=O)C3CC(F)(F)C3)c3cccc(F)c3)C[C@@H]2C1`, the IC50 in assay [1] is 74 nM; in assay [2], 6 nM. Take `Cc1nnc(C)n1[C@@H]1C[C@@H]2CN(CC[C@H](NC(=O)C3CCOCC3)c3cccc(F)c3)C[C@@H]2C1`: the IC50 is at least 625 nM in assay [1] and 30 nM in assay [2].

For the molecule `Cc1nnc(C)n1[C@@H]1C[C@@H]2CN(CC[C@H](NC(=O)C3CCC(F)(F)CC3)c3cccc(F)c3)C[C@@H]2C1`, the IC50 turned out to be 41 nM in assay [1] and 8 nM in assay [2].

For the molecule `Cc1nnc(C)n1[C@H]1C[C@H]2CC[C@@H](C1)N2CC[C@H](NC(=O)C1CCOCC1)c1cccc(F)c1`, the IC50 in assay [1] is 220 nM; in assay [2] it was 13 nM. As to `Cc1nnc(C)n1[C@H]1C[C@H]2CC[C@@H](C1)N2CC[C@H](NC(=O)C1CCC(F)(F)CC1)c1cccc(F)c1`, the IC50 in assay [1] and in assay [2] was 5 nM each time. As for `Cc1nnc(C)n1C1CCN(CC[C@H](NC(=O)C2CCC(F)(F)CC2)c2cccc(F)c2)CC1`, the figures for the IC50 in assay [1] and in assay [2] were at least 625 nM and 38 nM, respectively. Turning to `Cc1nnc(C)n1[C@H]1C[C@H]2CC[C@@H](C1)N2CC[C@H](NC(=O)C1CCOC1)c1cccc(F)c1` (some centres not stated), the IC50 was 62 nM in assay [1] and 7 nM in assay [2]. Turning to `Cc1nnc(C)n1[C@H]1C[C@H]2CC[C@@H](C1)N2CC[C@H](NC(=O)C1CC(F)(F)C1)c1cccc(F)c1`, the IC50 in assay [1] was found to be 24 nM; in assay [2], 5 nM. With `Cc1nnc(C(C)C)n1[C@H]1C[C@H]2CC[C@@H](C1)N2CC[C@H](NC(=O)C1CCC(F)(F)CC1)c1ccccc1` [MARAVIROC], the IC50 in assay [1] is 2.8 nM.
